Laboratory results: ChEMBL document CHEMBL1201862, “PubChem BioAssay data set” (2004)
Calls of active or inactive are those of the source.

What was measured:
Vero = experiment: cells; type: functional; conditions: Chlorocebus sabaeus
[1] = biological target: T1, Rac GTPase-activating protein 1 (Homo sapiens, UniProt Q9H0H5); experiment: blockers of MgcRacGAP-driven Rac1 GTP hydrolysis – biochemical, ADP Hunter fluorescence, primary and confirmatory, confirmation (AID 624330); type: functional
T1 sequence (Q9H0H5 whole entry): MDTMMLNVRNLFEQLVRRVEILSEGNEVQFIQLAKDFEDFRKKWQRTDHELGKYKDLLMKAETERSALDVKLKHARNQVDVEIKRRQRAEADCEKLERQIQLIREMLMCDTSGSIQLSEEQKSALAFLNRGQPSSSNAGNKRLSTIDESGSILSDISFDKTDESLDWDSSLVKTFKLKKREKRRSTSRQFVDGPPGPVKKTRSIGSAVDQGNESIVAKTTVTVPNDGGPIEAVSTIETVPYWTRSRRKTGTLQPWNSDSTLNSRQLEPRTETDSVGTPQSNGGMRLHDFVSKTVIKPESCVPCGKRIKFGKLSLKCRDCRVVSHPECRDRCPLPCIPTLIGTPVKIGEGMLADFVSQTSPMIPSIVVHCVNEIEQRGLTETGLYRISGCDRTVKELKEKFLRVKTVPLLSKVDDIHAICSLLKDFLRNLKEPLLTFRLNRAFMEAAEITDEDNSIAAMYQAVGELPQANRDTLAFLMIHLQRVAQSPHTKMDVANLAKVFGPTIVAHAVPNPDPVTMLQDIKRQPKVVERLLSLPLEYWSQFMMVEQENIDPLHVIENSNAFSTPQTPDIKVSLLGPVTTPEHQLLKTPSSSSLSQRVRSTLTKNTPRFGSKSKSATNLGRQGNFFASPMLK

[2] = viability loss in HeLa cells – cytotoxicity control for MgcRacGAP inhibitor project, dose response (AID 624300); type: functional
[3] = NIH3T3 cell viability loss – ATP luminescence, mouse fibroblasts, counter-screen, dose response (AID 2010); type: functional, cell-based;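 also: cells exposed to compound for about 90 hours before reading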
[4] = biological target: T2, Microphthalmia-associated transcription factor (Homo sapiens, UniProt O75030); experiment: reducers of TRPM1 reporter luminescence, concentration series – cell-based, SK-MEL-5, cherry-picked, set 3, MITF inhibitor project, dose response (AID 493073); type: functional;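 also: SK-MEL-5 melanoma cells with luciferase driven by the MITF target TRPM1 promoter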
T2 sequence (O75030 whole entry): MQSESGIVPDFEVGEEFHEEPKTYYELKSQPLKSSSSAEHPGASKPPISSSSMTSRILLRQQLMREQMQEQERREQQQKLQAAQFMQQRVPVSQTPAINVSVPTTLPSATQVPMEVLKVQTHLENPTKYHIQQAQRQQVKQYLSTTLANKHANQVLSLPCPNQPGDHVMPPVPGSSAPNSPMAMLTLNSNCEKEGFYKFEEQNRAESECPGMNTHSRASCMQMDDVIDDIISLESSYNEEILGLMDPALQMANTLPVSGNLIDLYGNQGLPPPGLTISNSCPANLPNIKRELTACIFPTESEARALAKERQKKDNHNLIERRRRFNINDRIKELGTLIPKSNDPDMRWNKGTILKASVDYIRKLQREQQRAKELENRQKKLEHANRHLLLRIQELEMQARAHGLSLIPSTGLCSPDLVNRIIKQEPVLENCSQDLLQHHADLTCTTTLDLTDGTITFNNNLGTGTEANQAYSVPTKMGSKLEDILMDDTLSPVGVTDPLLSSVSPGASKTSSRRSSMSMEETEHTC

[5] = Trypanosoma cruzi growth suppression in host cells – NIH3T3 host cells, beta-gal luminescence, confirmation (AID 2044); type: functional, cell-based;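 also: intracellular parasites grown in NIH/3T3 mouse fibroblasts as host cells; luminescent beta-galactosidase reporter signal from transgenic T. cruzi replicating inside host cells; inhibitors lower the luminescence signal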
H9c2 = experiment: cells; type: functional, cell-based; conditions: Rattus norvegicus, H9c2, Myocardium;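 also: confirmatory concentration-response retest of ultra-high-throughput screening hits for modulation of myocardial damage; cell death induced by hydrogen peroxide oxidative stress; compound pretreatment for 60 min then peroxide exposure for 2 h; potency is for protecting the cells against peroxide damage rather than for killing them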
[6] = biological target: T3, Carboxy-terminal domain RNA polymerase II polypeptide A small phosphatase 1 (Homo sapiens, UniProt Q9GZU7); experiment: CTDSP1 inhibitors, concentration-response, biochemical, absorbance readout, ultra-high-throughput screen actives (AID 540297); type: functional
T3 sequence (Q9GZU7 whole entry): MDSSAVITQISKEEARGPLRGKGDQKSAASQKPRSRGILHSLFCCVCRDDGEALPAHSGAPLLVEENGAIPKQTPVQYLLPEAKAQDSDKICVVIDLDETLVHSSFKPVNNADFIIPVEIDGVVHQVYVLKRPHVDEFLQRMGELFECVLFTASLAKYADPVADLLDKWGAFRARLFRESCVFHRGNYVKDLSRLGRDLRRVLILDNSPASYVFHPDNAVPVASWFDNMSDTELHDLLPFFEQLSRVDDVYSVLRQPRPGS

[7] = biological target: T4, Zinc finger protein mex-5 (Caenorhabditis elegans, UniProt Q9XUB2); experiment: potency of MEX-5 RNA-binding blockers – biochemical, C. elegans, fluorescence polarization, dose response (AID 1960)
T4 sequence (Q9XUB2 whole entry): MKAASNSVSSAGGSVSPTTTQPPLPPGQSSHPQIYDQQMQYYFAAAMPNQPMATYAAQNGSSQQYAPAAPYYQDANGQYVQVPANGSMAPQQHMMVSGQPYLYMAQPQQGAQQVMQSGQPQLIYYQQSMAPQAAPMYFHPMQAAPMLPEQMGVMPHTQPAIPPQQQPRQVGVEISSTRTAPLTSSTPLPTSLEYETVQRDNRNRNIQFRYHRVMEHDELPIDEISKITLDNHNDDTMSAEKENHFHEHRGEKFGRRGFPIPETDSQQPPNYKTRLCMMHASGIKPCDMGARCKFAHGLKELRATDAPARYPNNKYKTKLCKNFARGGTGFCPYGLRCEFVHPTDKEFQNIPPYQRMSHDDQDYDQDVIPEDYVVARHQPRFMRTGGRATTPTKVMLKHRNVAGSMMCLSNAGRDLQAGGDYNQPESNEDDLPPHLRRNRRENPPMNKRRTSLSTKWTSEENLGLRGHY

[8] = biological target: T5, RNA-binding protein pos-1 (Caenorhabditis elegans, UniProt G5EF15); experiment: disruptors of C. elegans POS-1 RNA interaction – biochemical, fluorescence polarization, dose response (AID 1964);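 also: purified POS-1 fused to maltose binding protein made in E. coli; potency of compounds blocking POS-1 binding to fluorescent RNA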
T5 sequence (G5EF15 whole entry): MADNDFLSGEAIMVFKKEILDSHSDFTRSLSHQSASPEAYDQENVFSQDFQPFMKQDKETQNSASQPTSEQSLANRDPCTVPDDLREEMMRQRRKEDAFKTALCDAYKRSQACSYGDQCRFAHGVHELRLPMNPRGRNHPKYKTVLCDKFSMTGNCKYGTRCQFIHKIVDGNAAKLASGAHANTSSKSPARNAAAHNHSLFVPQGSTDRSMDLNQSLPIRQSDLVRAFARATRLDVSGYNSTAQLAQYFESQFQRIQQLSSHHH

[9] = loss of viability in HepG2 cells – cell-based, CellTiter-Glo, cherry-picked, cytotoxicity control for Shn3 inhibitor project, dose response (AID 624134); type: functional
[10] = reduction of Shn3 3'UTR-driven luciferase in osteoblasts – cell-based, Clone20 osteoblasts, firefly luciferase, cherry-picked, dose response (AID 624132); type: functional;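 also: firefly luciferase luminescence from reporter carrying the Shn3 3'UTR in osteoblasts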
[11] = non-specific 3'UTR reporter inhibition in Clone20-Shn3RL – cell-based, Renilla luciferase, cherry-picked, counter-screen for Shn3 inhibitor project, dose response (AID 624133); type: functional
Leucine aminopeptidase = biological target: T6, Leucine aminopeptidase (Plasmodium falciparum 3D7, UniProt Q8IL11); experiment: P. falciparum M17LAP inhibitors, primary screen, biochemical, fluorogenic H-Leu-NHMec substrate, 1536-well (AID 1619); type: functional
T6 sequence (Q8IL11 whole entry): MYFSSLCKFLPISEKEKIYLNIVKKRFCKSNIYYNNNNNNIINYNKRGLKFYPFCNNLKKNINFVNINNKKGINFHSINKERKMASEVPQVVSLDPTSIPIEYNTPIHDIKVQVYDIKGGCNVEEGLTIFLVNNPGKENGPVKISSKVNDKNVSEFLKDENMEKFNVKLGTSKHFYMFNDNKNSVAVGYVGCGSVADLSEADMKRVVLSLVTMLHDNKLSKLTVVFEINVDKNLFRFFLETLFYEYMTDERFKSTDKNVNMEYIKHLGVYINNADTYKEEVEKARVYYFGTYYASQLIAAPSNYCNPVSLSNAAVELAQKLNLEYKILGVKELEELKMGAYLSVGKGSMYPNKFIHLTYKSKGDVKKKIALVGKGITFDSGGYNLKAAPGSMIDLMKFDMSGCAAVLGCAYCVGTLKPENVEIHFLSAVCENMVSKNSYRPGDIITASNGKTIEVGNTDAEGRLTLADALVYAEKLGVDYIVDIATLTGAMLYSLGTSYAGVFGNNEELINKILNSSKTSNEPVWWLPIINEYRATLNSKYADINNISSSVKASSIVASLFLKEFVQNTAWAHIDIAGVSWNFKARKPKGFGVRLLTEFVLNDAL

[12] = luciferase reporter signal suppression in cells – H4 neuroglioma cells, luminescence, dose response (AID 1990); type: functional, cell-based
[13] = alpha-synuclein stem-loop luciferase translation blockers – H4 neuroglioma cells, luminescence, confirmation (AID 1988); type: functional, cell-based
[14] = Luminescence Cell-Based Dose Response HTS to Identify Inhibitors of 5'UTR Stem-Loop Driven Prion Protein mRNA Translation in H4 Neuroglioblastoma Cells. [Related pubchem assays: 1827 (Project Summary), 1813 (Primary HTS)]; type: functional
[15] = biological target: T7, Heat shock factor protein 1 (Mus musculus, UniProt P38532); experiment: decrease of HSF1-responsive luciferase luminescence – cell-based, NIH3T3, dose retest, confirmation (AID 2382); type: functional;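 also: NIH3T3 fibroblasts with HSF1-driven luciferase reporter stressed by proteasome inhibitor MG132; luminescence from HSF1-driven luciferase expression after 8 hours of MG132 stress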
T7 sequence (P38532 whole entry): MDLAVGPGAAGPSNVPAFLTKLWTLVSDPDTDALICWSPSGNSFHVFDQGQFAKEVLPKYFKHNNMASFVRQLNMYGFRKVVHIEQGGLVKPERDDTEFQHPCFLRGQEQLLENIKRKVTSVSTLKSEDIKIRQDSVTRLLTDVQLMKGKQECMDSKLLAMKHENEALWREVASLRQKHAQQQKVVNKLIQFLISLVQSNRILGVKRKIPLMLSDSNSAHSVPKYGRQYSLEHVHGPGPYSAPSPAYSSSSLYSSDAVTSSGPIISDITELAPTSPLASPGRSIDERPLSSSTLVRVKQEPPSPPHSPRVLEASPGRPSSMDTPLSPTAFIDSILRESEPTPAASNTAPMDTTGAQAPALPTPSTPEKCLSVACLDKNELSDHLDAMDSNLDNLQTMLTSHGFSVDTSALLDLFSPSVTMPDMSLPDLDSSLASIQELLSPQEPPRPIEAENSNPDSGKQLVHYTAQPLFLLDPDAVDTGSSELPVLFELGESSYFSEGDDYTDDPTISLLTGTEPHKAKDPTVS

COc1ccc(-n2cccc2/C=C/[N+](=O)[O-])cc1
CC50 (Vero): 16 µM (active) | IC50 [1]: 44 µM (active) | CC50 [2]: 42.3 µM (active)

O=C(Nc1ccc(N2CCN(C(=O)c3ccc(Cl)cc3)CC2)cc1)c1ccc([N+](=O)[O-])o1
EC50 [3]: 32.8 µM (active) | AC50 [4]: 7.32 µM (active) | EC50 [5]: 1.81 µM (active)

O=C(CCc1nc(O)c2ccccc2n1)N1CCN(S(=O)(=O)c2cccc([N+](=O)[O-])c2)CC1
IC50 (H9c2): > 79 µM (inactive)

CCOC(=O)c1ccc2c(c1)[n+](CC)c(/C=C/N(C)c1ccccc1)n2CC
IC50 [6]: 4.04 µM (active) | AC50 [4]: 3.24 µM (active)

COc1cc2c(cc1N=C(S)Nc1cccc(C(F)(F)F)c1)oc1ccccc12
IC50 [1]: 225 µM (active) | CC50 [2]: 100 µM (active)

CCCCN1C(=O)/C(=C2/Sc3ccc(OC)cc3N2CC)SC1=S
EC50 [7]: > 300 µM (inconclusive) | EC50 [8]: > 300 µM (inconclusive)

Cc1cc(C)c(C)c(S(=O)(=O)N2CCN(C(=O)CCc3nc(O)c4ccccc4n3)CC2)c1C
IC50 (H9c2): > 79 µM (inactive)

CC1(C)CC(=O)C2=C(C1)OC(N)=C(C#N)C21C(=O)N2CCCc3cccc1c32 (stereo unspecified)
EC50 [7]: > 300 µM (not active) | EC50 [8]: > 300 µM (not active)

O=S(=O)(NNC(=S)Nc1ccc(S(=O)(=O)Nc2ncccn2)cc1)c1ccc(Br)cc1
EC50 [7]: 5.04 µM (active) | EC50 [8]: 2.97 µM (inconclusive)

C[C+](C)[N-]Oc1cc(NC(=O)CCl)cc([N+](=O)[O-])c1
AC50 [4]: 6.18 µM (active)

CCOC(=O)N1CCC(NC(=O)C2CCCN(Cc3nc(-c4cccc(C)c4)oc3C)C2)CC1 (stereo unspecified)
AC50 [9]: 55.6 µM (active) | AC50 [10]: 3.06 µM (active) | AC50 [4]: 34.9 µM (active) | AC50 [11]: 7.52 µM (active)

OCCCNc1ncnc2sc3c(c12)CCN(Cc1ccccc1)C3
EC50 [7]: 24.9 µM (active) | EC50 [8]: > 300 µM (not active)

COc1cccc(NC(=O)CSc2nc3c(oc4ccccc43)c(=O)[nH]2)c1
IC50 (Leucine aminopeptidase): < 1 µM (active)

CCOc1cc(/C=C(\C#N)c2[nH]nc(N)c2C#N)ccc1O
EC50 [12]: 11.9 µM (active) | EC50 [13]: > 120 µM (not active) | EC50 [14]: 14.6 µM (active) | CC50 [2]: 100 µM (active)

Nc1ccccc1C(=O)NNc1c2ccccc2nc2ccccc12
IC50 [1]: 98.3 µM (active) | CC50 [2]: 100 µM (active)

c1ccc(-c2nn3c(-c4ccco4)nnc3s2)nc1
IC50 (H9c2): 12.8 µM (active)

CCOc1ccccc1NC(=O)c1oc2ccccc2c1NC(=O)C1CCCO1 (stereo unspecified)
IC50 (H9c2): > 79 µM (inactive)

COc1ccc(/C=C2\CCCC(C(=O)C(F)(F)F)=C2O)cc1OC
EC50 [7]: 254 µM (inconclusive) | EC50 [8]: > 300 µM (not active)

Cn1c(=O)c2nc(NN=Cc3ccc(Br)cc3)[nH]c2n(C)c1=O
IC50 (H9c2): > 79 µM (inactive)

COc1ccc(-c2csc(/C(C#N)=C(\O)CSc3nccn3C)n2)cc1OC
IC50 (H9c2): > 79 µM (inactive) | EC50 [15]: > 195 µM (not active)

Cc1n[nH]c(O)c1/C=N/N1CCOCC1
EC50 [7]: > 300 µM (not active) | EC50 [8]: > 300 µM (not active)
